From US12115184B2, “Amorphous calcium carbonate stabilized with polyphosphates or bisphosphonates” (AMORPHICAL LTD., priority 2015, dated 2024)

Test system: 4T1 tumor cells
Test: Mouse bone metastasis model, intratibial 4T1 cells
Assay type: in vivo, mouse (BALB/c)
Details: for survival rate compared with the other groups: FIG. 8, days 13-27; for clinical signs scoring compared with the other groups: FIG. 9, days 0-27, high scoring = more clinical signs
Text: The purpose of this study was to assess the potential therapeutic efficacy of ACC stabilized with triphosphate (ACC-TP) on the development and progression of bone metastases in mouse model via intraperitoneal (IP) injections. The model is induced by intra osseous inoculation of 4T1 tumor cells (cells originated from mice mammary gland tumor). Two ACC concentrations were examined. Their efficacy was compared to CaCl2 as a control calcium source and to a common treatment of bone metastases (Bisphosphonate—Alendronic acid).
The study was designed in order to assess the potential therapeutic efficacy of ACC-TP via intraperitoneal (IP) injections, on the development and progression of bone metastases in mouse model. The cancer model was induced by Intratibial injections of cancer cells to the Tibia bone. Intratibial injections are used when focusing on the relationships of cancer cells and bone after a tumor has metastasized, thus is considered the most appropriate for such studies.
Female mice (BALB/c, 9 weeks old) were used for the experiment. […] Initial body weight was 16-19 gr. The mice were let to acclimatize 5 days prior to the experiment.
The first control or test items administration day was defined as “Day 1”. On study day “0” all mice were anesthetized used intraperitoneal injection of Ketamine (80 mg/kg) and Xylazine (5 mg/kg). 4T1 (CRL-2539, B1) cells were injected intratibial into the Tibia in a dose level of 70×10^3 cells and dose volume of 10 μl per animal.
The control or test Items comprising calcium were administered intraperitoneally by a 25 G needle, daily (6 days a week) from Day 1 until study termination. The Alendronic acid was administered subcutaneously once a day, 3 days a week.
At study termination (Day 23 and Day 27), animals were […] by CO2 asphyxiation.
The following measurements and observations were recorded: (i) Mortality and morbidity (daily); (ii) Clinical signs observations (twice a week); (iii) Body weight measurements (once a week and at study termination); (iv) Radiographic analysis; and (v) Amount of food and water consumption (once a week).
Observations were performed for any changes in skin, fur, eyes, mucous membranes, respiratory, occurrence of secretions and excretions (e.g. diarrhea). Changes in gait, posture and response to handling, as the presence of bizarre behavior, tremors, convulsions, sleep and coma were also included.
X-ray monitoring were performed at Day “0” and Day “20” (X-ray generator Girth 8015).

[1] = after intratibial 4T1 injection on day 0

| SMILES | survival rate compared with the other groups | clinical signs scoring compared with the other groups | day up to which no mice had deceased [1] [days] | overall performance / therapeutic effect (conclusion from survival rate and clinical signs) | mice deceased as early as day [1] [days] | survival percentages (up to day 23 of study duration) |
| --- | --- | --- | --- | --- | --- | --- |
| NCCCC(O)(P(=O)(O)O)P(=O)(O)O [Alendronic acid] | survival rate is lower | highest scoring of clinical signs | 19 | worst performance | – | – |
| [Ca+2].[Cl-].[Cl-] [CaCl2, calcium chloride] | lower survival percentage | higher number of clinical signs | – | – | 16 | higher than 75% |
